Measured values as given in publication PMC4729137, “Functional analysis of androgen receptor mutations that confer anti-androgen resistance identified in circulating cell-free DNA from prostate cancer patients” (Genome Biology, 2016).
Where two headings read alike, the source gives them in different places.

Key:
[1] = serum of prostate cancer patients, cited from earlier work
BF3 pocket of AR-LBD = target: T1, BF3 pocket of AR-LBD (Homo sapiens, UniProt P10275); experiment: Lanthascreen TR-FRET displacement of FITC-BAG1L peptide; format: binding; details: compounds 0.41 to 100 μM
T1 construct: the (His)6-tagged AR-LBD was prepared at 4X final concentration in the buffer
T1 sequence (P10275 669-900 limits assumed): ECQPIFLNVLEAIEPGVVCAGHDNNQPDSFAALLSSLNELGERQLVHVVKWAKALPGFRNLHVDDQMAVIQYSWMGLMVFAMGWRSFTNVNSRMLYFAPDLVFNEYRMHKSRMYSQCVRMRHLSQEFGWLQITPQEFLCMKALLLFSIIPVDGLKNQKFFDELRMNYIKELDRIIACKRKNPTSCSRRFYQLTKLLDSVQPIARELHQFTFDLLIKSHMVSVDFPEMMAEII
Experimental: Compounds were tested in the range of 0.41 to 100 μM in a final concentration of 1.5 % DMSO. The protein AR-LBD, the FITC-BAG1L peptide, and the LanthaScreen® Elite Terbium-labeled anti-His-tag antibody (Life Technologies, PV5863) were used at final concentrations of 100 nM, 500 nM, and 5 nM, respectively. […] Mix B contained 4X FITC-BAG1L peptide in 2 % DMSO. A three-fold serial dilution of the compounds was prepared at 100X final concentration in DMSO. […] In a black flat bottom 384-well plate 5 μL of Mix A, 5 μL of Mix B, and 10 μL of Mix C were added.

24 AR mutants = experiment: AR inhibition luciferase assay, panel of all 24 AR mutants; format: cell-based, human; details: all tested AR mutants; Additional file 4: Table S2
Text: Full-length human AR (WT-AR) was encoded on a pcDNA3.1 expression plasmid (Life technologies). The LBD point mutations (single and multiple) were generated using the QuikChange II Site-Directed Mutagenesis Kit (Agilent Technologies) as per manufacturer’s instructions using WT-AR as the template. The mutagenic oligonucleotide primers were designed individually with the desired mutation in the middle of the primer with approximately 10 to 15 bases of correct sequence on both sides.
PC3 cells were seeded and transfected as described above. […] A non-stimulated/no R1881 control was used. After 24 h, cells were lysed and AR-dependent luciferase activity was quantified. Each concentration was assayed in quadruplicate n = 4, with a biological replicate of n = 3. Results were averaged and normalized by expressing them as a percentage of WT AR activity.

For `CC(O)(CS(=O)(=O)c1ccc(F)cc1)C(=O)Nc1ccc(C#N)c(C(F)(F)F)c1` (stereo not shown) [Bicalutamide, bicalutamide], the “Steady state concentration in serum” value [1] is listed as 8.9 µg/mL and the “Steady state concentration in serum” value ([1]; converted from μg/mL) is listed as “approximately 20 μM”.
For `Brc1cn(-c2csc(N3CCOCC3)n2)c(Br)n1` [VPC-14449], the “Displacement of FITC labeled BAG1L peptide (residues 1-20) from the BF3 pocket of AR” value (BF3 pocket of AR-LBD) was “not able to displace”.
In the case of `C[C@]12CC[C@H](O)CC1=CC[C@@H]1[C@@H]2CC[C@]2(C)C(c3cccnc3)=CC[C@@H]12` [abiraterone], the “Activation of AR mutants (in words)” value (24 AR mutants) is reported as “none of the tested mutants were activated”.
